The assay has as its target Con A (Canavalia ensiformis, UniProt P02866). Briefly: SPR competition binding assay for Con A. The following applies: Con A tetramer 0.5 uM, pre-incubated 1 hr with inhibitor. The method, then: A self-assembled monolayer composed of 20% mannopyranoside ligand and 80% thiobutanol mixture was generated on a J1 biosensor chip (See FIG. 9). In particular, immobilization of ligand to the biosensor chip was preformed in BIAcore 3000 instrument. A mixture of 4-mercapto-1-butanol (Ligand A) and 5-thiopentyl α-D-mannopyranoside (Ligand B) in deionized water was injected into a flow cell with the J1 biochip.
Next, the binding affinity of Con A for this chip was determined by titration with a series of Con A concentrations to generate multiple SPR curves. In particular, Con A was dissolved in sample buffer (1.0 mL, 20 mM HEPES, pH 7.0, 90 mM NaCl with 1 mM MnCl2 and CaCl2) and then filtered by a syringe. Con A solution (50 μL) was injected over immobilized biosensor surface and allowed 260 seconds for dissociation and then followed by regeneration buffer. A set of SPR response curves was obtained after different concentrations of Con A solution were applied (See FIG. 10A, showing curves for 6, 3, 1.5, 0.38, 0.19 uM of Con A (top to bottom)).
Competition assays were then conducted. […] The mixture (50 uL) was then injected and the flow rate was controlled at 60 uL/minute. The equilibrium binding response values was collected at equilibrium binding portion of the curve (260 seconds post-injection). […]

Turning to α-D-methyl-mannopyrannoside [αMeMan], the Ki (commonly a measure of affinity in units of concentration, obtained from inhibition or displacement) was 200 µM.

These data come from US20050287552A1, “Carbohydrate encapsulated nanoparticle based affinity mass spectrometry” (Academia Sinica, Office of Public Affairs (Technology …, priority 2003, published 2005).
